Results on 3 molecules are retold here after ChEMBL document CHEMBL1201862, “PubChem BioAssay data set” (2004).

The test system of one test is CHO. Kind of test: CHO cell viability loss, potency – luminescence, cytotoxicity control for TLR9-MyD88 binding inhibitor project, dose response (AID 588339).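 Further: CHO cells stably coexpressing TLR9 and MyD88 fusions from primary screen; compound exposure lasted 48 hours before viability readout.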 As to conditions: Cricetulus griseus. It counts as functional, cell-based, hamster.
A short description of test [1]: loss of viability in HepG2 cells – cell-based, CellTiter-Glo, cherry-picked, cytotoxicity control for Shn3 inhibitor project, dose response (AID 624134). It counts as functional. In general terms: Cellular ATP, detected with luciferase, serves as a proxy for viable cell number.
For test [2], the target named is T1, High affinity choline transporter 1 (Homo sapiens, UniProt Q9GZV3).
T1 sequence (Q9GZV3 whole entry): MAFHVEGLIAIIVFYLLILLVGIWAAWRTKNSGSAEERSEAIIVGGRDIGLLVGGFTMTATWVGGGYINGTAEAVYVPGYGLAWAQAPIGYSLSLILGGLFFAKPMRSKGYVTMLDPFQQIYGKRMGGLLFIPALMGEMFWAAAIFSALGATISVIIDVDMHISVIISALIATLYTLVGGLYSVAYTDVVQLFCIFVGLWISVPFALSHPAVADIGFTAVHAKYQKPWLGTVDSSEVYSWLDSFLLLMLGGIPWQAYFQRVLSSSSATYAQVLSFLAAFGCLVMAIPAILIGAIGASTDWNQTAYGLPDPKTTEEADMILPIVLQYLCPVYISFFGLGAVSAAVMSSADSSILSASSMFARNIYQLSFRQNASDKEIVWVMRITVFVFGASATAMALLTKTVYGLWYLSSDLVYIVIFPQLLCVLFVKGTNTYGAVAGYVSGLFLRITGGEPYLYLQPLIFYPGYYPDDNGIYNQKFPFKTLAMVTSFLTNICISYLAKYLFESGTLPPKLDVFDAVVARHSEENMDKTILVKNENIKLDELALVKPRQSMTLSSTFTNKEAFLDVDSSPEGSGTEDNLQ
Kind of test: human choline transporter blockers, potency – cell-based, 5-point CRC, membrane potential dye, dose response (AID 504840). In kind it is functional.

In test [3] the target is DNA damage-inducible transcript 3 protein (Mus musculus, UniProt P35639). It counts as functional, Cricetulus griseus.
The next test has as its target Beta Lactamase (Pseudomonas aeruginosa, UniProt Q932Y6). In words: BLA reporter interference, concentration series – BLA reporter cells, FRET fluorescence, artefact control for TLR9-MyD88 binding inhibitor project, dose response (AID 588341).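 Further: cell based assay in CHO-K1 cells stably expressing beta-lactamase.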 It counts as cell-based.
A short description of test [4]: reduction of Shn3 3'UTR-driven luciferase in osteoblasts – cell-based, Clone20 osteoblasts, firefly luciferase, cherry-picked, dose response (AID 624132).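 Further: firefly luciferase luminescence from reporter carrying the Shn3 3'UTR in osteoblasts.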 In kind it is functional.
Test [5] in a line: non-specific 3'UTR reporter inhibition in Clone20-Shn3RL – cell-based, Renilla luciferase, cherry-picked, counter-screen for Shn3 inhibitor project, dose response (AID 624133). In kind it is functional. On the technique in general: A counterscreen serves to expose hits that act by an unwanted route or on another target.
Test [6] deals with T2, Delta-type opioid receptor (Homo sapiens, UniProt P41143). Kind of test: HTS Image-Based Screen for Antagonists of the DOR Receptor. [Related pubchem assays (depositor defined):AID1777, AID1785, AID1786, AID2133]. It counts as functional.
Test [7] in a line: cytotoxicity toward HT-29 cells – cell-based, CellTiter-Glo luminescence, IC50, dose response (AID 1117330). In kind it is functional.
Test [8] deals with Heat shock protein HSP 90-alpha (Homo sapiens, UniProt P07900). It counts as functional, organism-based.
The next test addresses Beta-galactosidase (Escherichia coli, UniProt Q8VNN2). In kind it is functional.
Test [9] is described as follows: RKO cell viability reduction, dose response, CellTiter-Glo luminescence (AID 1117322). It counts as functional.
Test [10] concerns the target T3, Kappa-type opioid receptor (Homo sapiens, UniProt P41145). It counts as functional.
A short description of test [11]: Reduced DLD-1 viability, concentration-response, CellTiter-Glo luminescence (AID 1117352). It counts as functional.
Test [12] in a line: CellTiter-Glo luminescence survival assay, SW480 colon tumor line, concentration-response curve, half-maximal inhibitory concentration (AID 1117338). In kind it is functional.
For test [13], the target named is T2, Delta-type opioid receptor. In words: HTS Image-Based Screen for Agonists of the DOR Receptor. [Related pubchem assays (depositor defined):AID1777, AID1786, AID2133]. In kind it is functional.
Test [14] deals with T3, Kappa-type opioid receptor. It counts as functional. The source holds these as a separate data set.
The nature of test [15]: cytotoxicity toward HCT116 cells – cell-based, CellTiter-Glo luminescence, IC50, dose response (AID 1117332). It counts as functional. As to conditions: HCT-116.
Test [16] deals with Streptococcus sp. 'group A'. Kind of test: Streptococcus pyogenes SK(-)GAS viability under kanamycin – luminescence, BacTiterGlo, confirmation, counter-screen for streptokinase expression inhibitor project, dose response (AID 1900). In kind it is functional, organism-based.
Another test concerns the target Mu-type opioid receptor (Homo sapiens, UniProt P35372). In words: HTS Image-Based Screen for Agonists of the MOR Receptor. [Related pubchem assays (depositor defined):AID1777, AID1785, AID1786, AID2133]. In kind it is functional.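 Further: imaging of beta-arrestin GFP recruitment into spots after receptor activation.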
A short description of test [17]: rise of 4N DNA cells, HeLa – IC50, dose response (AID 1117351). It counts as functional, cell-based.
Test [18] can be described thus: rise of 2N DNA cells, HeLa – IC50, dose response (AID 1117349). In kind it is functional, cell-based.
Test [19] in a line: SNU-C1 cell viability reduction, dose response, CellTiter-Glo luminescence (AID 1117323). It counts as functional, cell-based.
The next test has as its target HSP90 (Plasmodium falciparum 3D7, UniProt Q8IL32). In kind it is functional, organism-based.
The nature of test [20]: HCT116 cell viability decrease, GSK3B pretreatment – CellTiter-Glo, IC50, dose response (AID 1117339). It counts as functional. The note with it: HCT-116.
Test [21] is described as follows: cytotoxicity toward Colo320 cells – cell-based, CellTiter-Glo luminescence, IC50, dose response (AID 1117334). The note with it: COLO 320. In kind it is functional.
For the next test, the system named is Streptococcus. In words: GAS UMAA2166 growth inhibition – luminescence, BacTiterGlo, counter-screen for streptokinase expression inhibitor project, dose response (AID 1915).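 Further: potency for reduction of bacterial viability or growth.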 In kind it is functional, organism-based.
Test [22] has as its system HEK293. In words: optical interference in Abeta FP readout, dose response, artefact control for IDE activator project, biochemical, fluorescence polarization (AID 588442). In kind it is functional, cell-based. As to conditions: Homo sapiens.
The target of test [23] is Beta-lactamase (Pseudomonas aeruginosa, UniProt Q79MP6).
For test [24], the target named is T4, Intestinal-type alkaline phosphatase (Homo sapiens, UniProt P09923). Kind of test: Dose Response confirmation of uHTS hits from a small molecule inhibitors of human intestinal alkaline phosphatase via a luminescent assay. [Related pubchem assays (depositor defined):AID2544, AID2574]. In kind it is functional.
For test [25], the target named is Intestinal-type alkaline phosphatase (Mus musculus, UniProt P24822). In words: PubChem AID 488874. It counts as functional.
Test [26] concerns the target T5, Alkaline phosphatase, tissue-nonspecific isozyme (Homo sapiens, UniProt P05186).
T5 sequence (P05186 whole entry): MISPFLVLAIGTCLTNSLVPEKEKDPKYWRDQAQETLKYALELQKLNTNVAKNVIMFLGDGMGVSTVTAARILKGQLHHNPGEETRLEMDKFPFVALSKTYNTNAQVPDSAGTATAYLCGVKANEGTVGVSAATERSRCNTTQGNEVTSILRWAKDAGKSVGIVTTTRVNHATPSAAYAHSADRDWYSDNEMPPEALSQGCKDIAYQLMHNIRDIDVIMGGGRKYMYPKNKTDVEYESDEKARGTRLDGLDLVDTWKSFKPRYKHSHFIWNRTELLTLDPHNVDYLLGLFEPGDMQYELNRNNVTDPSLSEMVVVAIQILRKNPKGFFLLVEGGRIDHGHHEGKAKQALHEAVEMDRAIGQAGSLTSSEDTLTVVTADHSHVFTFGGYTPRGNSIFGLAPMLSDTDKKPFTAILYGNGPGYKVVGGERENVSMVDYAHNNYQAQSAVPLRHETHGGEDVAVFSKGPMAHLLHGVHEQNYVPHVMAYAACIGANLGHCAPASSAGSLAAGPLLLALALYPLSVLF
In words: inhibition of tissue-nonspecific alkaline phosphatase – biochemical, dose response (AID 488882). It counts as functional.

Test [27] deals with T6, Insulin-degrading enzyme (Homo sapiens, UniProt P14735).
T6 sequence (P14735 whole entry): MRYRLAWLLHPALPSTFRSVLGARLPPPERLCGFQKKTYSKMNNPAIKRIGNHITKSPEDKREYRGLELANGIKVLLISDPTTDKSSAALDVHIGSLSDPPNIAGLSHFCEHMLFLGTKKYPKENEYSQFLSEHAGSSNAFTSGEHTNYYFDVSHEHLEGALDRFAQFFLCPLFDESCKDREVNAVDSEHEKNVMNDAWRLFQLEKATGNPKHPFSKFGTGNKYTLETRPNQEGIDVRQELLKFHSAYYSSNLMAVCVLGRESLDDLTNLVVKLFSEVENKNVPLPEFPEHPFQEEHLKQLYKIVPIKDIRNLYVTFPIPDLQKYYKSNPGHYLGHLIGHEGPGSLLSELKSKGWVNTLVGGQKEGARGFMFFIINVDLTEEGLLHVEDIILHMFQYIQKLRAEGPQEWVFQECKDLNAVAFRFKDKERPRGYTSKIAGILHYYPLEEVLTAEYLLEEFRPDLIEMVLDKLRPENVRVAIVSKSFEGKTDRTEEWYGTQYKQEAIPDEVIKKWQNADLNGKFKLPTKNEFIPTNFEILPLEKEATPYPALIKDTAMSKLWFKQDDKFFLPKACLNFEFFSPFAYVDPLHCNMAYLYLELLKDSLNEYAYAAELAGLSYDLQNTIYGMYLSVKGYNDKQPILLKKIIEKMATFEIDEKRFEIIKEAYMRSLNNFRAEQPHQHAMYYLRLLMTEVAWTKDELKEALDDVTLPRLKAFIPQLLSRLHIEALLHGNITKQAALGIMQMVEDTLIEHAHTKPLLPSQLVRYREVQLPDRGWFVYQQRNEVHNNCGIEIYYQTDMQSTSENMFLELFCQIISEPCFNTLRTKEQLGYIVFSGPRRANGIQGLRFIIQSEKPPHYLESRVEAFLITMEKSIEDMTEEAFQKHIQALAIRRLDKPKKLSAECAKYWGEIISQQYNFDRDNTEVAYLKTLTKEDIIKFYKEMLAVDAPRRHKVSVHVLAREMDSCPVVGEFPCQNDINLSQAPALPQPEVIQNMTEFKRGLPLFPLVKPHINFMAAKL
In words: cellular IDE activation of Abeta substrate cleavage – fluorescence polarization, HEK cells, dose response (AID 588439). In kind it is functional, cell-based. For orientation: Fluorescence polarisation rises when a labelled molecule tumbles more slowly, as on binding a larger partner.

Test [28] has as its target T6, Insulin-degrading enzyme. Kind of test: recombinant IDE activation, cell-free – biochemical, fluorescence polarization, counter-screen for IDE activator project, dose response (AID 588681).
A further test concerns the target ORF 73 (Human herpesvirus 8, UniProt O40947). In words: KSHV LANA DNA-binding disruption – biochemical, fluorescence polarization, cherry-picked samples, dose response (AID 504725).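 Further: fluorescence polarization of a labeled DNA duplex reporting LANA DNA binding; potency is for inhibitors that block LANA binding to the DNA.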 The arrangement: species or system Human gammaherpesvirus 8.
Test [29] deals with Beta-lactamase (Salmonella choleraesuis (strain SC-B67), UniProt Q5J463).
Test [30] addresses T4, Intestinal-type alkaline phosphatase. Kind of test: inhibition of human intestinal alkaline phosphatase – biochemical, luminescent, uHTS hits, set 2, dose response (AID 488793). In kind it is functional.
The test system of test [31] is HEK293. Kind of test: membrane integrity loss in HEK cells – cell-based, fluorescence, cytotoxicity control for IDE activator project, dose response (AID 588440).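 Further: cytotoxicity by LDH release measuring loss of membrane integrity.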 It counts as functional. The note with it: Homo sapiens.

Activity calls are given as the source filed them.

T2 sequence (P41143 whole entry): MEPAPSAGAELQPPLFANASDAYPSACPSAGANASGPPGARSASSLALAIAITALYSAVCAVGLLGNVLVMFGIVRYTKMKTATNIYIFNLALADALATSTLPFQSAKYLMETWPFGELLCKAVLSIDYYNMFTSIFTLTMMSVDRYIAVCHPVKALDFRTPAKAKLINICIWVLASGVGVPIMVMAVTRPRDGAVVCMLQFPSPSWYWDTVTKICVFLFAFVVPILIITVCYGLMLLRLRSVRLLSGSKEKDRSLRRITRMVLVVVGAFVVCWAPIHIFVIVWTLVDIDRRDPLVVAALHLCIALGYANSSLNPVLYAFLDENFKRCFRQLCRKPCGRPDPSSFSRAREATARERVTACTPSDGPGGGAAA
T4 sequence (P09923 whole entry): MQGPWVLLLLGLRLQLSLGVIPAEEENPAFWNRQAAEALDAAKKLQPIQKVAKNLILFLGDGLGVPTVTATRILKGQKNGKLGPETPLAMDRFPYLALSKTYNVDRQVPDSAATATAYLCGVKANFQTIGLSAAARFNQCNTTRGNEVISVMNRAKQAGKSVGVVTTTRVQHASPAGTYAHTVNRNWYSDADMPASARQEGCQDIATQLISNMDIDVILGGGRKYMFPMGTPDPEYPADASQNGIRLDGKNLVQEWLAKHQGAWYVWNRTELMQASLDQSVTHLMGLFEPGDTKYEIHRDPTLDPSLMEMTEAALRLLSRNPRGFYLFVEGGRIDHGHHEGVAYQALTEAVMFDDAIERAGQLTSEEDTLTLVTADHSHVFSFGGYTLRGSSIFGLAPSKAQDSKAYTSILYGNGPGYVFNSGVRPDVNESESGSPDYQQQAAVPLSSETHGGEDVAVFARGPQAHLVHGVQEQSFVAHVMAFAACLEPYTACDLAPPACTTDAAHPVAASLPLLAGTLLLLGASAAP
T3 sequence (P41145 whole entry): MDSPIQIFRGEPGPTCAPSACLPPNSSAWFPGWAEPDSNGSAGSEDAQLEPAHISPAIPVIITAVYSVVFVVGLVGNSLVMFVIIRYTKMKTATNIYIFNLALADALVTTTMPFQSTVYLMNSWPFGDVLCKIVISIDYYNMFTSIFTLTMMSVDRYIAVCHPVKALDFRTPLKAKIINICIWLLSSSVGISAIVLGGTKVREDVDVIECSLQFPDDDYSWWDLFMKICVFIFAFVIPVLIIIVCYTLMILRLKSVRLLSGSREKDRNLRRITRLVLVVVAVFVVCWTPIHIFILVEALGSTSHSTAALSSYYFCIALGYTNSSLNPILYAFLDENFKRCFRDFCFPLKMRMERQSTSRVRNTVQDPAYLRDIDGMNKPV
Chain of Beta-lactamase (Salmonella choleraesuis (strain SC-B67), UniProt Q5J463) (Q5J463 whole entry): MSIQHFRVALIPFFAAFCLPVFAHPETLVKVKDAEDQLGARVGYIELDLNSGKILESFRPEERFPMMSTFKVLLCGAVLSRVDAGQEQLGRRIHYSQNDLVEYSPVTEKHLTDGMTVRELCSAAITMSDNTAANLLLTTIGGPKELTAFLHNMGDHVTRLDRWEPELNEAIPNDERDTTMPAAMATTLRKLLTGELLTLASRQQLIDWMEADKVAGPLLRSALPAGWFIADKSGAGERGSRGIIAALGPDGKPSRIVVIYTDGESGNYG
Chain of Beta-lactamase (Pseudomonas aeruginosa, UniProt Q79MP6) (Q79MP6 whole entry): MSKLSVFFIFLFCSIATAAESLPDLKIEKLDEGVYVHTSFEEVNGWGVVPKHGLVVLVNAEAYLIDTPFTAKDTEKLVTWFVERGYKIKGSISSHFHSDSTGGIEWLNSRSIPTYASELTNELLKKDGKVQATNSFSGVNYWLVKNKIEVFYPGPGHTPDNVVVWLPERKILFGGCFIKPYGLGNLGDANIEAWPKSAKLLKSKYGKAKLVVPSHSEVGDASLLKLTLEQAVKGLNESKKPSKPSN
Chain of DNA damage-inducible transcript 3 protein (P35639 whole entry): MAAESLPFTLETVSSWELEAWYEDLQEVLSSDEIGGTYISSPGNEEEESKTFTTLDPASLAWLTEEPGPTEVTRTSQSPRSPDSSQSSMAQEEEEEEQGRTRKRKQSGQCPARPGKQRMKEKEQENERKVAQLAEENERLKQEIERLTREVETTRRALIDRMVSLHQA
Chain of Mu-type opioid receptor (P35372 whole entry): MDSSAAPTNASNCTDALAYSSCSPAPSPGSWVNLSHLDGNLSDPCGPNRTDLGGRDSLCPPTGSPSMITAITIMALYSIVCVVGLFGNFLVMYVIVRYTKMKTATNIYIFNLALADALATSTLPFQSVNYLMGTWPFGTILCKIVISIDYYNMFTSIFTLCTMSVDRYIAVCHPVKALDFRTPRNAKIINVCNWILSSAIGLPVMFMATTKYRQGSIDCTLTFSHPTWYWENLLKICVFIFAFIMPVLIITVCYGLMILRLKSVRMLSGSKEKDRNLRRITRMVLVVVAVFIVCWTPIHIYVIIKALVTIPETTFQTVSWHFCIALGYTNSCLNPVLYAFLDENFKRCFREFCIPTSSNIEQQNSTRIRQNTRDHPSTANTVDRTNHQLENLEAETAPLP
Chain of Beta Lactamase (Q932Y6 whole entry): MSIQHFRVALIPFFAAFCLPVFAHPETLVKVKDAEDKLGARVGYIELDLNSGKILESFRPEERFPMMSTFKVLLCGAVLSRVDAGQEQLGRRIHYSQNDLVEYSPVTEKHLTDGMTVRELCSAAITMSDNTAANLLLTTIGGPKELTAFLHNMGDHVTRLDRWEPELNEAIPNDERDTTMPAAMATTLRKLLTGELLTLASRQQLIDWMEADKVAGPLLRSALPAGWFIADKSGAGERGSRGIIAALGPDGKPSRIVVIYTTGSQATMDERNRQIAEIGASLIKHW
Chain of Beta-galactosidase (Q8VNN2 whole entry): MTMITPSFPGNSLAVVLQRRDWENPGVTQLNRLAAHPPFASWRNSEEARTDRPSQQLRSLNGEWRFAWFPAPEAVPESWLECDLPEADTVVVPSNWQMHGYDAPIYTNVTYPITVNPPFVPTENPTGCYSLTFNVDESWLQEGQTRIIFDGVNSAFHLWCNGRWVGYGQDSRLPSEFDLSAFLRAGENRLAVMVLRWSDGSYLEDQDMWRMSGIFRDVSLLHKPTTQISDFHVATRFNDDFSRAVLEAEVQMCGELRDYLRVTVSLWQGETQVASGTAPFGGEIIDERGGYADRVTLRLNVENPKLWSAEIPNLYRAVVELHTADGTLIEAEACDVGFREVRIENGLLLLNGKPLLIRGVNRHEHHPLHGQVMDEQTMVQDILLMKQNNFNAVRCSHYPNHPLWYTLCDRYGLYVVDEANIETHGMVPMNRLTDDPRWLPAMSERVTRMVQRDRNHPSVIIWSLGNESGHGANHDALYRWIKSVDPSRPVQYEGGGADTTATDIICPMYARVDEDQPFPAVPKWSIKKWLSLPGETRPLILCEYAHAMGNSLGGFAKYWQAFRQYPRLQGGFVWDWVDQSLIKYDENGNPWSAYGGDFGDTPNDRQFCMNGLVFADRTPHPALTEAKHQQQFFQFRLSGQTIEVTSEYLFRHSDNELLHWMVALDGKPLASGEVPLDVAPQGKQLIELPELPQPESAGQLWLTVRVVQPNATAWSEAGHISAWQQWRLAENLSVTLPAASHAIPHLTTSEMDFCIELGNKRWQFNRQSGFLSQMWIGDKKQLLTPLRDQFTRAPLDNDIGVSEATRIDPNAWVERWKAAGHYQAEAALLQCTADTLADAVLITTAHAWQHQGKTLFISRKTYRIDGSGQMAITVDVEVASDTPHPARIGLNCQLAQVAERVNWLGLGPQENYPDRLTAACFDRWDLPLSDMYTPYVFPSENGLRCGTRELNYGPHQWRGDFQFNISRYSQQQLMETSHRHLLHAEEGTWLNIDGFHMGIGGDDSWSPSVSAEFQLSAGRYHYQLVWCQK
Chain of ORF 73 (O40947 whole entry): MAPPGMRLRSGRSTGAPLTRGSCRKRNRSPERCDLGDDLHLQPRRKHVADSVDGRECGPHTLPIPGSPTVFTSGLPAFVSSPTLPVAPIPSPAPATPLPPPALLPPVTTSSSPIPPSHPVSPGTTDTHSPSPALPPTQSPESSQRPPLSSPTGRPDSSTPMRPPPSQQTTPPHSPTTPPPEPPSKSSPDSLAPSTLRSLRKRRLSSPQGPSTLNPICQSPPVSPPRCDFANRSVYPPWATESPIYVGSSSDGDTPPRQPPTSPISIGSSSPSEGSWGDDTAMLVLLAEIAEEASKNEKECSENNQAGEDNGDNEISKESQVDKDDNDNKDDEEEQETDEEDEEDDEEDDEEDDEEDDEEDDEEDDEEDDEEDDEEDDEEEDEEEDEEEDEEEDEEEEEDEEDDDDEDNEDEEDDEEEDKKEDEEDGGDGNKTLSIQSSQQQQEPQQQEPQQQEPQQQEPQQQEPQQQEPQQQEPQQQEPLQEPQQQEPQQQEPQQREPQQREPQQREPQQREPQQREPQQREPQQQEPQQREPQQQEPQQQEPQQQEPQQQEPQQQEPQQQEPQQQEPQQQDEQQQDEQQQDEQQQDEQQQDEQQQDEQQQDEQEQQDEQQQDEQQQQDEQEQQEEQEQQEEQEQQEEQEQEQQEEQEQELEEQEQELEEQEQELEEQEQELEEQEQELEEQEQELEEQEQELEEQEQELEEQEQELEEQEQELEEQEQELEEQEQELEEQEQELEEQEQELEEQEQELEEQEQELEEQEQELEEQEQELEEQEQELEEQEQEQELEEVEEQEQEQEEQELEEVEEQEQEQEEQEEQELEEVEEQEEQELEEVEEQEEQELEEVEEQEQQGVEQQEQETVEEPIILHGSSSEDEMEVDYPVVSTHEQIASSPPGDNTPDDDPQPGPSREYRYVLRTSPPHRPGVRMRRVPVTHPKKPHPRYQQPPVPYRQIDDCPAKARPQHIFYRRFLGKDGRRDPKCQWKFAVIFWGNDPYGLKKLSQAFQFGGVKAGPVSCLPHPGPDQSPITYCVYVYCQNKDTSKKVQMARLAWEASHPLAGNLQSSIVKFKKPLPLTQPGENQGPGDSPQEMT

On to `CCOC(=O)c1nc(S(C)(=O)=O)ncc1Cl`, for which the results for the IC50 (in the test with CHO; in [2]; on Beta Lactamase) were 5.62 µM (active), 19.1 µM (active) and 22.4 µM (inactive), respectively. The AC50 – broadly, the concentration at which the activity in the assay is half-maximal – in test [1] is 35.4 µM (active); in [4], 6.37 µM (active); in test [5], 20.5 µM (active). In addition, in test [3], the “Absolute IC50 (CHOP)” value is 10 µM.

With `Oc1c(Cl)cc(Cl)c2cccnc12` [CHLOROXINE], the IC50 (as a rule, the concentration that inhibits the measured activity by half) was > 32 µM (inactive) in [6]; > 20 µM (inactive) in test [7]; 0.0627 µM (active) in test [9]; over 32 µM in test [10]; 0.409 µM (active) in [11]; 0.0438 µM (active) in [12]. Moreover, the IC50 in test [14] is 4.56 µM (active); in test [15] it was 0.0475 µM (active); in [17], > 10 µM (inactive); in test [18] it was > 10 µM (inactive); in test [19], 0.495 µM (active); in test [20], 0.0393 µM (active). Further, the IC50 in [21] is 0.0493 µM (active). The AC50 in [8] was 1.05 µM (active); on HSP90 it was 0.511 µM (active). For the same molecule, the EC50 (in general, the concentration that produces a half-maximal response) on Beta-galactosidase was > 31.5 µM (inactive); in test [13] it was > 32 µM (inactive); in [16], 0.258 µM (active); on Mu-type opioid receptor, > 32 µM (inactive); in the test on Streptococcus, 3.31 µM (active).

As to `Nc1ccc(-c2c3ccc(=O)cc-3oc3cc(O)ccc23)cc1C(=O)O`, the EC50 in the test with HEK293 [22], at Insulin-degrading enzyme [27] and at Insulin-degrading enzyme [28] was > 54.7 µM (inactive) each time. Further, the IC50 was 8.62 µM (active) on Beta-lactamase [23]; 14.5 µM (inactive) in test [24]; 20.3 µM (active) in test [25]; 34 µM (active) in test [26]; 3.41 µM (active) at Beta-lactamase [29]; 28.1 µM (active) in test [30]. In addition, the IC50 in the test with HEK293 [31] is > 89.2 µM (inactive). For the same molecule, at ORF 73, the AC50 was 0.532 µM (active).
